Measured values as given in publication PMC10535741, “Styrylpyridinium Derivatives for Fluorescent Cell Imaging” (Pharmaceuticals, 2023).

What was measured:
C6 (rat glioma) = assay: in vitro; format: cell-based
Excerpt: (§1) For selected compounds, 6a–6f, we performed a determination of the cytotoxicity in a wider variety of cancer and non-cancerous cell lines (see Table S2, Supplementary Materials) in order to learn the characteristic features of selectivity or the similarity of biological properties.
(§2) The HT-1080 (human connective tissue fibrosarcoma, ATCC® CCL-121™), MH-22A (mouse hepatocarcinoma, ECACC Cat. No. 96121721), A-549 (human lung carcinoma, ATCC® CCL-185™), NIH3T3 (Swiss Albino mouse embryo fibroblast, ECACC Cat. No. 93061524), Hek293 (human embryonic kidney, ATCC® CRL-1573™), BHK-21 (Syrian hamster kidney, ATCC® CCL-10™), A-431 (human epidermoid carcinoma, ATCC® CRL-1555™), Saos-2 (human osteosarcoma, ATCC® HTB-85™), HeLa (human epitheloid cervix carcinoma, ATCC® CCL-2™), U937 (human myeloid leukaemia, ATCC® CRL-1593.2™), C6 (rat glioma, ATCC® CCL-107™), and B16-F10 (murine melanoma, ATCC® CRL-6475™) cell lines were obtained from the American Type Culture Collection (ATCC) and European Collection of Authenticated Cell Cultures (ECACC).
HT-1080, MH-22A, A-549, NIH3T3, BHK-21, A-431, HeLa, and B16-F10 cells were cultured in Dulbecco’s Modified Eagle’s Medium (DMEM) with 2 mM glutamine and 10% foetal bovine serum (FBS). Hek293 cells were cultured in Eagle’s Minimum Essential Medium with 10% foetal bovine serum. U937 cells were cultured in RPMI-1640 Medium with 2 mM glutamine and 10% foetal bovine serum. C6 cells were cultured in Ham’s F12 Medium with 2 mM glutamine and 10% foetal bovine serum. Saos-2 cells were cultured in McCoy’s 5a Medium with 2 mM glutamine and 10% foetal bovine serum. The cells were incubated at 37 °C with 5% CO2, 95% air, and complete humidity. Once ~90% confluence was reached, they were detached using 0.05% trypsin/EDTA and counted. The cells were plated at optimally determined densities for the logarithmic phase of growth. These cells were then suspended at a concentration of 4000 cells/well for HT-1080, MH-22A, A-549, NIH3T3, BHK-21, A-431, HeLa, B16-F10, Hek293, and Saos-2 cells and a concentration of 9000 cells/well for U937, C6, Hek293, and GM08402 cells and added onto a 96-well plate. For background absorption, some wells remained cell free, i.e., as a blank control. Cells were incubated for 72 h at 37 °C and 5% CO2 where they were exposed to a media containing serial dilutions of the investigated compounds (n = 3). Cell viability was measured using the 3-(4,5-dimethylthiazol-2-yl)-2,5-diphenyl-tetrazolium bromide (MTT) assay. In brief, after incubating with compounds, the culture medium was removed and fresh medium with 0.2 mg/mL MTT was added to each well of the plate. After incubation (3 h, 37 °C, 5% CO2), the medium with MTT solution was removed and replaced with 200 µL DMSO and 25 µL Sorenson’s glycine buffer (glycine 0.1 M, NaCl 0.1 M, pH: 10.5 with 0.1 M NaOH). The plate was shaken for 15 min at room temperature and the optical density (OD) of the wells was determined using a multichannel spectrophotometer (Thermo Scientific Multiskan EX) at 540 nm. The quantity of the control cells was taken in calculations as 100%. The IC50 value was calculated using the program Graph Pad Prism® 3.0. […]

[1] = system: A-431 (human epidermoid carcinoma); assay: in vitro; format: cell-based
Excerpt: as §1, §2
(§3) HT-1080, MH-22A, A-549, NIH3T3, BHK-21, A-431, HeLa, and B16-F10 cells were cultured in Dulbecco’s Modified Eagle’s Medium (DMEM) with 2 mM glutamine and 10% foetal bovine serum (FBS). Hek293 cells were cultured in Eagle’s Minimum Essential Medium with 10% foetal bovine serum. U937 cells were cultured in RPMI-1640 Medium with 2 mM glutamine and 10% foetal bovine serum. C6 cells were cultured in Ham’s F12 Medium with 2 mM glutamine and 10% foetal bovine serum. Saos-2 cells were cultured in McCoy’s 5a Medium with 2 mM glutamine and 10% foetal bovine serum. The cells were incubated at 37 °C with 5% CO2, 95% air, and complete humidity. Once ~90% confluence was reached, they were detached using 0.05% trypsin/EDTA and counted. The cells were plated at optimally determined densities for the logarithmic phase of growth. These cells were then suspended at a concentration of 4000 cells/well for HT-1080, MH-22A, A-549, NIH3T3, BHK-21, A-431, HeLa, B16-F10, Hek293, and Saos-2 cells and a concentration of 9000 cells/well for U937, C6, Hek293, and GM08402 cells and added onto a 96-well plate. For background absorption, some wells remained cell free, i.e., as a blank control. Cells were incubated for 72 h at 37 °C and 5% CO2 where they were exposed to a media containing serial dilutions of the investigated compounds (n = 3). Cell viability was measured using the 3-(4,5-dimethylthiazol-2-yl)-2,5-diphenyl-tetrazolium bromide (MTT) assay. In brief, after incubating with compounds, the culture medium was removed and fresh medium with 0.2 mg/mL MTT was added to each well of the plate. After incubation (3 h, 37 °C, 5% CO2), the medium with MTT solution was removed and replaced with 200 µL DMSO and 25 µL Sorenson’s glycine buffer (glycine 0.1 M, NaCl 0.1 M, pH: 10.5 with 0.1 M NaOH). The plate was shaken for 15 min at room temperature and the optical density (OD) of the wells was determined using a multichannel spectrophotometer (Thermo Scientific Multiskan EX) at 540 nm. The quantity of the control cells was taken in calculations as 100%. The IC50 value was calculated using the program Graph Pad Prism® 3.0.
(§4) The HT-1080 (human connective tissue fibrosarcoma, ATCC® CCL-121™), MH-22A (mouse hepatocarcinoma, ECACC Cat.No. 96121721), A-549 (human lung carcinoma, ATCC® CCL-185™), NIH 3T3 (mouse Swiss Albino embryo fibroblast, ECACC Cat.No. 93061524), Hek293 (human embryonic kidney, ATCC® CRL-1573™), BHK-21 (hamster Syrian kidney, ATCC® CCL-10™), A-431 (human epidermoid carcinoma, ATCC® CRL-1555™), Saos-2 (human oste osarcoma, ATCC® HTB-85™) HeLa (human epitheloid cervix carcinoma, ATCC® CCL-2™), U937 (human myeloid leukaemia, ATCC® CRL-1593.2™), C6 (rat glioma, ATCC® CCL-107™), B16-F10 (murine melanoma, ATCC® CRL-6475™) cell lines were obtained from American Type Culture Collection (ATCC) and European Collection of Authenticated Cell Cultures […]
(§5) Table S2. […]

[2] = system: U937 (human myeloid leukaemia); assay: in vitro; format: cell-based
Excerpt: as §1, §2, §3, §4, §5

[3] = system: Hek293 (human embryonic kidney); assay: in vitro; format: cell-based
Excerpt: as §1, §2, §3, §4, §5

[4] = system: A-549 (human lung carcinoma); assay: in vitro; format: cell-based
Excerpt: as §1, §2, §3, §4, §5

[5] = system: Saos-2 (human osteosarcoma); assay: in vitro; format: cell-based
Excerpt: as §1, §2, §3, §4, §5

[6] = system: HeLa (human epitheloid cervix carcinoma); assay: in vitro; format: cell-based
Excerpt: as §1, §2, §3, §4, §5

[7] = system: murine bone-marrow-derived macrophages (BMDMs); assay: cells; conditions: Mus musculus, BMDM, 24 h, read-out: IC50 (BMDM viability)
Method: (§6) In this study, we used murine bone-marrow-derived macrophages (BMDMs) to evaluate the staining potential of the 6e compound in primary immune cells. […] To assess toxicity, the BMDMs were stained with various concentrations (0.1–100 μM) of compound 6e, and after 24 h, cell viability was measured using the CCK-8 assay (Figure 5).
(§7) To determine the cytotoxicity of the SP compound 6e, the cells were stained with various concentrations of the dye (0, 0.1, 1, 5, 10, and 100 μM). Briefly, 2 × 10^4 cells were plated in a 96-well plate in 100 μL of the medium. After 24 h, the cells were washed once and a solution of compound 6e in PBS was added to the cells. The cells were incubated in a humidified 5% CO2 incubator at 37 °C for 15–20 min. Then, the dye solution was replaced with medium. […] After 24 h, the medium was replaced with 10 μL of CCK-8 reagent in 100 μL of fresh medium. The cells were incubated in a humidified 5% CO2 incubator at 37 °C for 1–4 h. The absorbance at 450 nm was measured using a microplate spectrophotometer (BioTek Instruments, Winooski, VT, USA). Cell viability was calculated as a percentage of non-treated cell absorbance. IC50 values were calculated as the concentration at which 50% of the cells were viable.

in vitro = conditions: mouse
Method: as §6, §7

| SMILES | Cytotoxicity IC50 C6 (C6 (rat glioma)) | Cytotoxicity IC50 A-431 [1] | Cytotoxicity IC50 U937 [2] | Cytotoxicity IC50 Hek-293 [3] | Cytotoxicity IC50 A-549 [4] | Cytotoxicity IC50 Saos-2 [5] | Cytotoxicity IC50 HeLa [6] | IC50 [7] | viability at 24 h, 5 µM (in vitro) |
| --- | --- | --- | --- | --- | --- | --- | --- | --- | --- |
| CCCCCCCCCCCCCCCC[n+]1ccc(C=Cc2cc(OC)c(OC)c(OC)c2)cc1.[Br-] [Compound 6b] | 1.23 µg/mL | 1.10 µg/mL | 1.39 µg/mL | 0.38 µg/mL | 0.98 µg/mL | 0.60 µg/mL | 0.82 µg/mL |  |  |
| CCCCCCCCCCCCCCCC[n+]1ccc(C=CC=Cc2cc3c4c(c2)CCCN4CCC3)cc1.[Br-] [Compound 6e, 1-hexadecyl-4-(4-(2,3,6,7-tetrahydro-1H,5H-pyrido[3,2,1-ij]quinolin-9-yl)buta-1,3-dien-1-yl)pyridin-1-ium bromide] |  |  |  |  |  |  |  | 9.2 ± 1.5 µM | 79.1 ± 1.2% |
